In patent US20100136537A1, “PHOTORECEPTOR PRECURSOR CELLS” (THE REGENTS OF THE UNIVERSITY OF MICHIGAN, priority 2006, published 2010):
Entries after “also recorded” stand apart in the source; their conditions may differ.

How the values were obtained:
[1] = test system: chondroitin sulfate proteoglycans (CSPG); assay: CS-56 staining of glial scar after subretinal injection with or without ChABC; type: in vivo, mouse; settings: ChABC 0.025 U/μl, 1 μl subretinal, MNU-treated mice
Experimental: Transplantation Procedure. One μl of dissociated Nrl-GFP+ photoreceptor cell suspension (1.0×10^5 cells/μl each) without or with chondroitinase ABC (ChABC) (0.025 U/μl, Wako, Tokyo, Japan) (Nrl group, Nrl/ChABC group, respectively) or 1 μl of PBS (sham group) was drawn into a tapered glass pipette connected to a modified tube and injected through the sclera into the subretinal space. The procedure was performed under surgical microscope.
Immunofluorescence. Sections were washed in PBS, preincubated with a blocking solution (containing 20% skim milk and 0.3% Triton X-100 in PBS) for 30 minutes, and then incubated overnight at 4° C. with primary antibodies diluted in a blocking solution (containing 5% skim milk and 0.3% Triton X-100 in PBS). The primary antibodies and working dilutions were as follows: mouse and rabbit anti-GFP (1:500, Molecular Probes, Eugene, Oreg.), mouse monoclonal CS-56 IgM antibody (1:200, Sigma) that reacts specifically with chondroitin sulfate containing proteoglycans, and anti-vesicular glutamate transporter 1 (VGluT1; 1:100, Chemicon, Hampshire, UK), a marker for active presynaptic formation (See, e.g., Fujiyama et al., J Comp Neurol. 2003; 465:234-249). Sections were incubated for 90 minutes with secondary antibodies diluted 1:500 in PBS containing 5% skim milk and 0.3% Triton X-100. […]

CEP290 = settings: previous studies; cited from earlier work
photoreceptors [2] = assay: MNU-induced photoreceptor degeneration in adult C57Bl/6 mice (TUNEL, immunostaining, ERG); type: in vivo, mouse
Experimental: Preparation of Donor Cells and Recipients. Donor cells were prepared from P0-P2 retinas of the neural retina leucine zipper (Nrl)-GFP transgenic mice (See Example 1). Nrl is a basic motif-leucine zipper transcription factor that is preferentially expressed in rod photoreceptors and required for rod differentiation (See, e.g., Swaroop et al., Proc Natl Acad Sci USA. 1992; 89:266-270; and Mears et al., Nat Genet. 2001; 29:447-452). The Nrl promoter directed expression of enhanced green fluorescent protein (EGFP) specifically to new-born rod precursors and mature rods in the Nrl-GFP transgenic mouse. Eyes were enucleated, and the neural retinas dissected and dissociated with a Papain-Protease-DNase solution. N-methyl-N-nitrosourea (MNU; Sigma, St. Louis, Mo.), an alkylating agent that induces photoreceptor degeneration by forming 7-methyldeoxyguanosine DNA adducts in the nuclei of photoreceptors, was administered at a dose of 60 mg/kg to adult C57B1/6 mice by intraperitoneal injection 7 days before transplantation (See, e.g., Doonan et al., J Neurosci. 2003; 23:5723-5731; Ogino et al., Toxicol Pathol. 1993; 21:21-25; Yuge et al., In Vivo. 1996; 10:483-488).
Tissue Processing. Two or four weeks after surgery, the animals were perfused transcardially with 4% paraformaldehyde (Merck, Darmstadt, Germany) in 0.1 M phosphate buffer after sedation with ketamine (15 mg/kg). Eyes were removed and immersion fixed with 4% paraformaldehyde at 4° C. overnight and then in 25% sucrose-PBS to cryoprotect. The specimens were embedded in an optimal cutting temperature compound (Miles, Elkhart, Ind.) and consecutive 12-μm frozen sections were sliced on a cryostat.
Immunofluorescence. […]
Electrophysiology. […] Animals were placed on a regulated heating pad under dim red illumination and electroretinograms (ERGs) were recorded with a gold loop electrode placed on the corneal surface maintained with 3% methylcellulose gel. […] The amplitude of the a-wave was measured from the prestimulus baseline to the a-wave trough. […]

photoreceptors [3] = settings: MNU 60 mg/kg i.p.; cited from earlier work
NRL [4] = assay: NRL expression in serum-starved Y79 cells (immunoblot, Northern blot); type: cell-based, human; settings: serum-starved Y79 cells, 10 μM RA
Experimental: Cell Culture. Y79 human retinoblastoma cells (ATCC HTB 18) and HEK293 (ATCC CRL-1573) were maintained in RPMI 1640 and Dulbecco's modified Eagle's medium, respectively, under standard conditions with 15% (v/v) fetal bovine serum (FBS), penicillin G (100 units/ml), and streptomycin (100 μg/ml) at 37° C. and 5% CO2. For serum starvation and RA treatment experiments, Y79 cells (5×10^4) were cultured in the presence or absence of the serum (same batch of serum was used in all the experiments), at RA, 9-cis-RA, cycloheximide (CHX), and 4-(E-2-(5,6,7,8-tetrahydro-5,5,8,8-tetramethyl-2-naphthalenl)-1-propenyl) benzoic acid (TTNPB) at indicated concentrations. Me2SO or ethanol was added to Y79 cells in lieu of the soluble factors as negative control.
For protein synthesis inhibition experiments, Y79 cells were serum-starved for 24 h, and then simultaneously treated with RA and CHX for 8 or 24 h. NRL expression was analyzed by immunoblotting. In another set of experiments, serum-starved Y79 cells were first incubated with RA alone for 8 or 24 h and then CHX was added. Cell extracts were then analyzed 24 h later for examining NRL expression by immunoblotting.
(§1) Protein Expression Analysis.

NRL [5] = assay: NRL expression in newborn rat retinal cell cultures (immunoblot); type: cell-based
Experimental: Primary cultures of new-born rat retinal cells and enriched adult porcine photoreceptors were prepared as described (See Traverso et al., (2003) Investig. Ophthalmol. Vis. Sci. 44, 4550-4558). For newborn rat retinal cultures, rat pups were anesthetized and decapitated, the retinas dissected into CO2-independent Dulbecco's modified Eagle's medium and chopped into small fragments. The fragments were washed twice in Ca/Mg-free PBS and then digested in PBS containing 0.1% papain for 25 min at 37° C. Tissue was dissociated by repeated passage through flame polished Pasteur pipettes, then seeded into tissue culture plates precoated with laminin, in Neurobasal A medium (Invitrogen) containing 2% FBS. After 48 h, medium was changed to a chemically defined formula (Neurobasal A supplemented with B27) for a further 48 h, and then treated.
Experimental Treatments and Immunochemistry. […] RA was added to test wells (1, 5, 10, 20, and 40 μM, stock solution prepared in Me2SO, 10 μl/well).
as §1

mouse Nrl promoter [6] = assay: Nrl promoter-luciferase assay in serum-deprived Y79 cells; type: cell-based, human; settings: pGL3-NI and pGL3-Nm constructs (with putative RAREs), 10 μM RA, 24 h
Excerpt: (§2) Plasmid Constructs. DNA fragments of 2.5 kb (Nl), 1.2 kb (Nm), and 200 by (Ns) from the 5′-flanking region of the mouse Nrl promoter (GENBANK: AY526079; (See Akimoto et al., (2006) Proc. Natl. Acad. Sci. U.S.A. 103, 3890-3895) were amplified and cloned into pGL3-basic vector (Promega, Madison, Wis.) in-frame with the luciferase reporter gene. The following site-directed mutants of the Nrl promoter were generated from pGL3-Nl using the QUICKCHANGE site-directed mutagenesis kit (Stratagene, La Jolla, Calif.) and sequence-verified: pGL3-Nl-mutIII-1, pGL3-Nl-mutIII-2, and pGL3-Nl-mutII-1, containing deletion of the putative RAREs at positions −781 to −767, −709 to −700, and −453 to −443, respectively.
Transient Transfection and Luciferase Assay. Transient transfection of Y79 cells was performed using FUGENE 6 reagent (Roche Diagnostics, Indianapolis, Ind.). Prior to transfection, cells were serum-starved 24 h in OPTI-MEM (Invitrogen), diluted to 1.5×10^5 cells in 250 μl and seeded into 24-well plates. Transfection was performed with 0.5 μg of promoter-luciferase construct and 1.5 μl of FUGENE 6. […] Luciferase activity was measured using the Luciferase Assay System (Promega, Madison, Wis.). Experiments were repeated at least three times, and the luciferase activity was calculated as a fold change from the base line luciferase activity obtained in the presence of vector only.

mouse Nrl promoter [7] = assay: Nrl promoter-luciferase assay in HEK293 cells; type: cell-based; settings: dose-dependent response
Excerpt: as §2
Transient transfection of HEK293 (ATCC CRL-1573) cells was performed using LIPOFECTAMINE (Invitrogen) according to the manufacturer's instructions. The wild type and mutant Nrl promoter-luciferase constructs, and pCMV-β-gal were added to the cells at a concentration of 0.1 μg and 0.05 μg, respectively. After 3 h, 100 μl of Dulbecco's modified Eagle's medium with 0 or 500 nM at RA was added to each well. Cells were harvested after 24 h in 100 μl of GLO lysis buffer (Promega), and luciferase activity was measured.

NRL [8] = assay: NRL expression in adult pig photoreceptor cultures (immunoblot, immunocytochemistry); settings: 24 h

Compound: chondroitinase ABC [ChABC]
- degradation of CSPG in the ECM of the glial scar at the injection site (CS-56 staining) [1]: substantially, if not completely, degraded

Compound: COC(=O)Nc1nc2ccc(C(=O)c3cccs3)cc2[nH]1 [nocodazole]
- centrosomal localization of CEP290 after microtubule depolymerization (CEP290): does not alter centrosomal localization of CEP290

Compound: CN(N=O)C(N)=O [MNU, N-methyl-N-nitrosourea]
- dark-adapted ERG response (photoreceptors [2]; 1 week after single i.p. MNU 60 mg/kg): does not detect a response; also recorded: no responses were detectable
- state of outer nuclear layer / photoreceptor layer (photoreceptors [2]; 1 week after single i.p. MNU 60 mg/kg, VGluT1 and Cytox blue staining): completely destroyed; also recorded: essentially destroyed
- TUNEL labeling of retina (photoreceptors [2]; 2 days after single i.p. MNU 60 mg/kg): nuclear labeling in the majority of the photoreceptor cells
- time to apoptosis in all photoreceptors after injection (photoreceptors [3]): ≤ 1 week

Compound: CC1=C(/C=C/C(C)=C/C=C/C(C)=C/C(=O)O)C(C)(C)CCC1 [at RA]
- incubation time after which an increase in NRL protein was observed (NRL [4]): 8 h
- toxicity in culture (NRL [5]; doses above 5-20 μM (40 μM RA), newborn rat retina cells): some toxicity; also recorded: toxic for cell survival
- RA concentration giving maximal effects on NRL expression (NRL [5]; newborn rat retinal cultures, 24 h): 5 to 20 µM
- increase in luciferase activity (mouse Nrl promoter [6]): > 2 fold
- at RA concentration of maximum effect on pGL3-Nl luciferase activity (mouse Nrl promoter [7]): 500 nM
- RA concentration giving maximal effects on NRL expression (NRL [8]): 5 to 20 µM
